{"source": "paper doi:10.1101/2020.02.20.957365v1", "about": "“Tree bark scrape fungus: A potential source of laccase for application in bioremediation of non-textile dyes” (biorxiv, 2020)", "tested_on": "T1, laccase of Aspergillus sp. HB_RZ4", "T1 construct": "native extracellular enzyme purified from culture supernatant (ammonium sulfate, DEAE-cellulose, Sephadex G-100); about 62 kDa by SDS-PAGE", "assay": "ABTS oxidation at […] nm, Michaelis-Menten and Lineweaver-Burk", "assay_type": "biochemical", "conditions": "apparent Km; ABTS 10-200 mM; assay buffer 100 mM sodium acetate pH 4.0; free enzyme", "data": [{"smiles": "CCn1c(=NN=c2sc3cc(S(=O)(=O)O)ccc3n2CC)sc2cc(S(=O)(=O)O)ccc21", "note": "[ABTS, 2,2’-azino-bis (3-ethylbenzothiazoline 6-sulphonic acid)]", "values": [{"measurement": "Km", "value": 26.8, "unit": "mM"}]}]}
